In this test the test system is bPTH-stimulated resorption. In words: Calcitonin ear drops in 45Ca-labelled guinea pigs; 45Ca release from explanted ossicles after bPTH stimulation. The class given is in vivo. The following applies: for antagonism by calcitonin of the bPTH-stimulated resorption (45Ca release into bathing medium): 40 hour reading. The method, then:
A large dose of radio calcium (400 μCi of ^45 Ca) is administered intravenously to each of eight guinea pigs to label their skeletons. On the third, fourth and fifth days after administration of the radiocalcium each of the guinea pigs receives ear drops containing a solution of synthetic salmon calcitonin (Armour Pharmaceutical Co.) dissolved in dimethylsulphoxide (0.1 ml of solution containing 25μg of calcitonin). Four of the animals receive calcitonin to the right ear and four to the left ear, 0.1 ml of dimethylsulphoxide being given to the other ear in each case as a control.
One hour before sacrifice on the fifth day three animals from each group of four are treated intravenously with 500 MRC units of bovine parathyroid hormone (bPTH; 2000U/mg) in diluted plasma to stimulate bone resorption, the remaining animal in each group receiving diluted plasma only as a control. After sacrifice in alternation by ether anaesthesia, the ossicles of each ear of each animal are removed by the opening the temporal bone from its lower surface, remote from the external ear to which calcitonin has been applied. They are explanted onto a filter disc (Millipore HA) in a tissue culture dish containing 1 ml of the Fitton-Jackson modification of BGJ (Gibco-Biocult Ltd) with added ascorbic acid (150 μg/ml), streptomycin (5 mg/100 ml) and penicillin (5000U/100 ml), gassed with 93% air, 7% carbon dioxide. The bathing medium is withdrawn from each dish after 20, 40 and 60 hours incubation in an airtight container at 37° C. and is replaced with freshly gassed medium. After addition to 4 ml aliquots of scintillator (Packard Instagel) the samples are subjected to liquid scintillation spectrometry (Packard 2425 set to the ^14 C channel).
In a variation of the procedure described above, the calcitonin is administered in 0.1% w/v aqueous sodium dioctyl sulphosuccinate rather than in dimethyl sulphoxide in two separate experiments, the whole of the ossicles being explanted as described above in the first case and only the stapes being explanted in the second. In these two experiments some variation is made in the radiolabelling procedure, only 200 μCi of ^45 Ca being given in the first case but intraperitoneally rather than intravenously to facilitate the labelling of bone and 400 μCi of ^45 Ca being given in the second case, also intraperitoneally, but with omission of the methyl red from the BGJ culture medium as this causes considerable quenching.
A group of twenty-four guinea pigs is treated as described in Example 1 to effect labelling of their skeletons, a dose of 400 μCi of ^45 Ca being given intraperitoneally. The animals are then divided into three groups which are treated as described in Example 1 with 0.1 ml of a solution of concentration 27.8 μg/ml, 83.3 μg/ml or 250 μg/ml of synthetic salmon calcitonin in 0.1% w/v aqueous sodium dioctyl sulphosuccinate. The subsequent treatment of the animals follows that of Example 1, the methyl red being omitted from the BGJ culture medium.

As to synthetic salmon calcitonin, the “level of effect on 45Ca release from explanted ossicles” value is, setting by setting: (Example 2, 0.1 ml ear drops of 27.8 μg/ml in 0.1% w/v aqueous sodium dioctyl sulphosuccinate) “little effect”; (Example 2, 0.1 ml ear drops of 83.3 μg/ml in 0.1% w/v aqueous sodium dioctyl sulphosuccinate, compared with 250 μg/ml) “very similar level of effect”; (Example 2, 0.1 ml ear drops of 250 μg/ml in 0.1% w/v aqueous sodium dioctyl sulphosuccinate, compared with 83.3 μg/ml) “very similar level of effect”. The “duration of effect after application in vivo” value (Example 2, bathing medium examined after 20, 40 and 60 hours of culture) is listed as “effect of extended duration”. Further, the “antagonism by calcitonin of the bPTH-stimulated resorption (45Ca release into bathing medium)” value (from here on “antagonism by calcitonin”) (ear drops 0.1 ml with 25 μg calcitonin in dimethylsulphoxide, days 3-5, whole of the ossicles explanted, p<0.01) is given as “highly significant”; the “antagonism by calcitonin” value (ear drops with calcitonin in 0.1% w/v aqueous sodium dioctyl sulphosuccinate, only the stapes explanted, p<0.005) is given as “highly significant”; the “antagonism by calcitonin” value (ear drops with calcitonin in 0.1% w/v aqueous sodium dioctyl sulphosuccinate, whole of the ossicles explanted, p<0.01) is given as “highly significant”. Moreover, the “concentration level generally required to achieve an adequate effect” value (topical composition, calcitonin with a potency of about 4500 International units per mg) was “greater than 25 micrograms per ml”.

These data come from patent US4241051A, “Calcitonin” (priority 1977, dated 1980).
